From publication PMC8636942, “Ab initio Designed Antimicrobial Peptides Against Gram-Negative Bacteria” (Frontiers in Microbiology, 2021)
≈ marks a conversion by molar mass, not a printed value. Where two headings read alike, the source gives them in different places. No end group written: not given here.

Assays:
[1] = tested on: E. coli ATCC 51659 (MDR, O157:H7); conditions: Mueller Hinton Broth; for Minimum inhibitory concentration (MIC): MDR strain, CLSI broth microdilution, 5 × 10^4 CFU/well, OD600, <10% of untreated control = clear, n = 3; for Minimum inhibitory concentration (MIC) / Antibacterial screening: growth inhibition / bactericidal activity: 16–20 h, 37°C; for Antibacterial screening: growth inhibition / bactericidal activity: 5 × 10^5 CFU/mL, OD600, n = 3
[2] = tested on: human red blood cells; assay: Hemolysis assay; assay type: cell-based; conditions: 2% human RBCs (K2EDTA blood) in PBS, 1 h, 37°C
[3] = tested on: S. aureus ATCC 33592; assay type: cell-based, Staphylococcus aureus
Protocol: (§1) The antimicrobial activity of the PHNX peptides (China Peptides custom synthesis) and LL-37 (AnaSpec 61302) against bacteria was determined as previously described ([Barksdale et al., 2016], [2017]). Briefly, 1 × 10^5 CFU per well of bacteria were incubated with different peptide concentrations (n = 3) in a 50-μl solution of 10 mM sodium phosphate buffer (3 h, 37°C). Serial dilutions were then prepared in 1X Dulbecco’s PBS and 8 μl of each dilution was spotted in triplicate on Tryptic Soy Agar plates, which were incubated (37°C, 24 h) and CFUs were counted ([Barksdale et al., 2016], [2017]). Bacterial survival at each peptide concentration was calculated based on the ratio of the number of colonies on each experimental plate and the average number of colonies observed for assay cultures lacking peptide. The peptide concentration required to kill 50% of the viable bacteria in the assay cultures (EC50) was determined by plotting percent survival as a function of the log of peptide concentration (log μg/ml) and fitting the data using GraphPad Prism 6 (GraphPad Software Inc., San Diego, CA, United States). For the purpose of graphing, samples that had no peptide (0 μg/ml) are plotted at 1 × 10^–7 μg/ml peptide. EC50 values were determined by fitting the data from the antimicrobial assays to a standard sigmoidal dose–response curve. […] Wells containing only 10 mM sodium phosphate buffer were used as sterility control.

[4] = tested on: E. coli ATCC 4157 (antibiotic susceptible); conditions: Mueller Hinton Broth; for Minimum inhibitory concentration (MIC): antibiotic susceptible strain, CLSI broth microdilution, 5 × 10^4 CFU/well, OD600, n = 3
[5] = tested on: E. coli ATCC 51659; assay type: cell-based, Escherichia coli
Protocol: as §1

[6] = tested on: S. aureus ATCC BAA-1718 (antibiotic susceptible); conditions: antibiotic susceptible strain; CLSI broth microdilution, Mueller Hinton Broth, 5 × 10^4 CFU/well, 16–20 h, 37°C, OD600; n = 3
[7] = tested on: S. aureus ATCC 33592 (MDR, MRSA); conditions: Mueller Hinton Broth, 16–20 h, 37°C; for Minimum inhibitory concentration (MIC): MDR (MRSA) strain, CLSI broth microdilution, 5 × 10^4 CFU/well, OD600, n = 3; for Antibacterial screening: growth inhibition / bactericidal activity: peptide 100 μg/ml, 5 × 10^5 CFU/mL, OD600, n = 3
[8] = peptide 100 μg/ml, OD540, DI water = full lysis, n = 3
[9] = same EC50 presented in micromolar units, 10 mM sodium phosphate buffer, 3 h, 37°C, read-out: EC50

Row | Compound | Minimum inhibitory concentration (MIC) [1] | EC50 ([3]; ATCC 33592, 3 h) | EC50 ([5]; ATCC 51659, 3 h) | Half maximal effective concentration (EC50) ([5]; ATCC 51659, 3 h) | other results
1 | CC[C@H](C)[C@H](NC(=O)[C@H](CCCCN)NC(=O)[C@H](CCC(=O)O)NC(=O)[C@H](CCCCN)NC(=O)[C@H](CO)NC(=O)[C@H](CCCCN)NC(=O)[C@H](CCCNC(=N)N)NC(=O)[C@H](Cc1ccccc1)NC(=O)[C@H](Cc1ccccc1)NC(=O)[C@H](CC(=O)O)NC(=O)CNC(=O)[C@H](CC(C)C)NC(=O)[C@@H](N)CC(C)C)C(=O)NCC(=O)N[C@@H](CCCCN)C(=O)N[C@@H](CCC(=O)O)C(=O)N[C@@H](Cc1ccccc1)C(=O)N[C@@H](CCCCN)C(=O)N[C@@H](CCCNC(=N)N)C(=O)N[C@H](C(=O)N[C@H](C(=O)N[C@@H](CCC(N)=O)C(=O)N[C@@H](CCCNC(=N)N)C(=O)N[C@H](C(=O)N[C@@H](CCCCN)C(=O)N[C@@H](CC(=O)O)C(=O)N[C@@H](Cc1ccccc1)C(=O)N[C@@H](CC(C)C)C(=O)N[C@@H](CCCNC(=N)N)C(=O)N[C@@H](CC(N)=O)C(=O)N[C@@H](CC(C)C)C(=O)N[C@H](C(=O)N1CCC[C@H]1C(=O)N[C@@H](CCCNC(=N)N)C(=O)N[C@H](C(=O)N[C@@H](CCC(=O)O)C(=O)N[C@@H](CO)C(=O)O)[C@@H](C)O)C(C)C)[C@@H](C)CC)C(C)C)[C@@H](C)CC [LL-37] | 32 µg/mL (≈ 7.12 µM) |  |  |  | Hemolysis ([2]; peptide 1 μg/ml, OD540, n = 3): negligible hemolysis; Hemolysis [2, 8]: approximately 40%
2 | GLMDTVKNAAKNLAGQLLD KIKCKITG (disulfide) [PHNX-8, 28-residue synthetic AMP with a C-terminal rana box, designed by positional analysis on Dataset 2] | 64 µg/mL |  |  |  | Antibacterial screening: growth inhibition / bactericidal activity ([1]; peptide 100 μg/ml): showed activity; Antibacterial screening: bacterial survival ([1]; peptide 100 μg/ml, Figure 3C): ~0%; Half maximal effective concentration (EC50) ([3]; low salt: 10 mM sodium phosphate buffer, 1 × 10^5 CFU per well, 3 h, 37°C, CFU counting, sigmoidal fit, n = 3): 3.31 µg/mL; EC50 [3, 9]: 1120 nM; Minimum inhibitory concentration (MIC) ([4]; 16–20 h, 37°C): 32 µg/mL; Antibacterial screening: growth inhibition / bactericidal activity ([4]; peptide 100 μg/ml, 5 × 10^5 CFU/mL, 16–20 h, 37°C, OD600, n = 3): showed activity; Antibacterial screening: bacterial survival ([4]; peptide 100 μg/ml, Figure 3A): ~0%; EC50 [5, 9]: 20 nM
3 | FLLKIVALLKKKLL [PHNX-1] |  | 140 nM | 80 nM | ≤ 10 µg/mL | 
4 | FGKLLKLGKGLKG [PHNX-3] | >100 µg/mL |  |  | >10 µg/mL | EC50 [3, 9]: > 7340 nM
5 | GVVDIIKGAGKKFAKGLAGKIANKK [PHNX-7] |  | 830 nM | 20 nM | ≤ 10 µg/mL | 
6 | FLIKILKGGKGGK [PHNX-5] | >100 µg/mL | > 7360 nM | 3640 nM | ≤ 10 µg/mL | 
7 | FIGAIASYLKKFR [PHNX-6] | >100 µg/mL | 5240 nM | 1720 nM | ≤ 10 µg/mL | 
8 | FLLKLGLGKKKLL [PHNX-4] |  | 3290 nM | 1980 nM | ≤ 10 µg/mL | 
9 | FGKLLKLGKGLGG [PHNX-2] | >100 µg/mL |  | > 7780 nM |  | EC50 [3, 9]: > 7780 nM
10 | VRLIVAVRIWRR-NH2 (C-terminus assumed) [IDR-1018] | ~16 µg/mL |  |  |  | Antibacterial screening: growth inhibition / bactericidal activity ([1]; peptide 100 μg/ml): 100%; Minimum inhibitory concentration (MIC) [6]: ~16 µg/mL; Hemolysis ([2]; peptide 1 μg/ml, OD540, n = 3): negligible hemolysis; Hemolysis ([2]; peptide 10 μg/ml, OD540, n = 3): ~10%; Hemolysis [2, 8]: approximately 40%; Minimum inhibitory concentration (MIC) [7]: ~16 µg/mL; Antibacterial screening: growth inhibition / bactericidal activity [7]: 100%
11 | KRFKKFFRKLKKSVKKRAKEFFKKPRVIGVSIPF [BF-CATH, reference compound] | 8 µg/mL |  |  |  | Antibacterial screening: growth inhibition / bactericidal activity ([1]; peptide 100 μg/ml): 100%; Minimum inhibitory concentration (MIC) ([4]; 16–20 h, 37°C): 4 µg/mL; Minimum inhibitory concentration (MIC) [7]: 64 µg/mL; Antibacterial screening: growth inhibition / bactericidal activity [7]: 100%
